From ChEMBL document CHEMBL1909046, “DrugMatrix in vitro pharmacology data”

Tests used:
Melanocortin receptor 3 = Melanocortin receptor 3 (Homo sapiens, UniProt P41968); format: cell membranes, Membrane; settings: hek293; note: in other assays of this panel Not Active means under 50% inhibition at 10 µM
[1] = molecular target: Tyrosine-protein kinase Lck (Homo sapiens, UniProt P06239); experiment: DRUGMATRIX: Protein Tyrosine Kinase, LCK enzyme inhibition (substrate: Poly(Glu:Tyr)); format: cell-based, Insect cells; settings: insect cells; Not Active = under 50% inhibition at 10 µM
Chain of Tyrosine-protein kinase Lck (P06239 whole entry): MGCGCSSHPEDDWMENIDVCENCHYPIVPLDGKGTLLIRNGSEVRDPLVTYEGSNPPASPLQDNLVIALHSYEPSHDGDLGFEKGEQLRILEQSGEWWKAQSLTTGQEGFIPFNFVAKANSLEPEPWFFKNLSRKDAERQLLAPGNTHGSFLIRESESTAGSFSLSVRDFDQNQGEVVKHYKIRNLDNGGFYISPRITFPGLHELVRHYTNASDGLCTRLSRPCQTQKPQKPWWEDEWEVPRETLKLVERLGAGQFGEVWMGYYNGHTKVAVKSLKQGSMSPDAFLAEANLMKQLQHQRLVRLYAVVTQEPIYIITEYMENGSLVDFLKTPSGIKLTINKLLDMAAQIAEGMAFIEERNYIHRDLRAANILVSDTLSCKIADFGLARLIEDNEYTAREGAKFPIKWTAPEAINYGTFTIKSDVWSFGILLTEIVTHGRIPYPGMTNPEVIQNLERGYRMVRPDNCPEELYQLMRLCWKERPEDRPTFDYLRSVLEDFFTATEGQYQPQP

Estrogen receptor = molecular target: T1, Estrogen receptor (Homo sapiens, UniProt P03372); settings: sf9; note: in other assays of this panel Not Active means under 50% inhibition at 10 µM
T1 sequence (P03372 whole entry): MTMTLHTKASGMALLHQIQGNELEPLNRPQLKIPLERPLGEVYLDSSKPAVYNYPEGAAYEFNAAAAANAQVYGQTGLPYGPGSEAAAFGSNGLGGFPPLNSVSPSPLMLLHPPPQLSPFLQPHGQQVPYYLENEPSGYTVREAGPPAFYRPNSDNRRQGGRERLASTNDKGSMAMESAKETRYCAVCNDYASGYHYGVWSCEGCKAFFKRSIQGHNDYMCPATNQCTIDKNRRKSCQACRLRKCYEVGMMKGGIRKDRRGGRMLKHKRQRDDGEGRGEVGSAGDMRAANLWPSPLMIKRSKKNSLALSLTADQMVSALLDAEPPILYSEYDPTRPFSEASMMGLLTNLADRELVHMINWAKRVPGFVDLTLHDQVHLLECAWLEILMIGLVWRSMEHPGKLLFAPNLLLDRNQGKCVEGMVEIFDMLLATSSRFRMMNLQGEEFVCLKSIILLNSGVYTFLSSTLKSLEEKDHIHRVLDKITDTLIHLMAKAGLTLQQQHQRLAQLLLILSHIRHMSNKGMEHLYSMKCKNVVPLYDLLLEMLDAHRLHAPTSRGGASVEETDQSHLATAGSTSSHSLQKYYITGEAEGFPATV

[2] = molecular target: T2, Alpha-2A adrenergic receptor (Homo sapiens, UniProt P08913); format: cell membranes, Sf9, Membrane; settings: sf9; note: in other assays of this panel Not Active means under 50% inhibition at 10 µM
T2 sequence (P08913 whole entry): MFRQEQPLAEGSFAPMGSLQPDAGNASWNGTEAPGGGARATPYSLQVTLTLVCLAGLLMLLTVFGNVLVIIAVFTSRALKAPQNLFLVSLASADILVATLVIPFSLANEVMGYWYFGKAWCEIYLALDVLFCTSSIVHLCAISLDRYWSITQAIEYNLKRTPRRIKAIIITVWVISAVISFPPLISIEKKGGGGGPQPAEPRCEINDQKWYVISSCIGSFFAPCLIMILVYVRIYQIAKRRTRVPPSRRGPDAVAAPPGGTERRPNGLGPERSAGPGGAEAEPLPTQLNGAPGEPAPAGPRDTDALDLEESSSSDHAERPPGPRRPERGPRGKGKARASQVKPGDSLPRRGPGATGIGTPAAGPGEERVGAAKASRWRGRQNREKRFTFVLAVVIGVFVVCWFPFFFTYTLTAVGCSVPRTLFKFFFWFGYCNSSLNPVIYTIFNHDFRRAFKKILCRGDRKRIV

Cytochrome P450 2C9 = Cytochrome P450 2C9 (Homo sapiens, UniProt P11712); settings: bti-tn-5b1-4; note: in other assays of this panel Not Active means under 50% inhibition at 10 µM
Chain of Cytochrome P450 2C9 (P11712 whole entry): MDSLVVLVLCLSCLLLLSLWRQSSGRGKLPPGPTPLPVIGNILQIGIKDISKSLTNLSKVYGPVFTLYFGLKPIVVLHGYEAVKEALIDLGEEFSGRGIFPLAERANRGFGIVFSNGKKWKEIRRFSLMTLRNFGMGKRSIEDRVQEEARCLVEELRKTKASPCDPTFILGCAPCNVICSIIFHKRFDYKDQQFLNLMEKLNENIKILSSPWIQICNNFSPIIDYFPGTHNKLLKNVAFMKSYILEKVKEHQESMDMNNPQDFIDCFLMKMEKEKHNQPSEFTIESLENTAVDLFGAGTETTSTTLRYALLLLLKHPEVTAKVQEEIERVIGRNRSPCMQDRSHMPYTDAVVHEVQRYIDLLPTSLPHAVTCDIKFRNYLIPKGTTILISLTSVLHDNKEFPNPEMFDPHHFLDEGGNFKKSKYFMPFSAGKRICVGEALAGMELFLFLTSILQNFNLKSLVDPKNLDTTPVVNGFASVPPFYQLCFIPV

[3] = DRUGMATRIX: Serotonin (5-Hydroxytryptamine) 5-HT3 radioligand binding (ligand: [3H] GR-65630); format: cell membranes, Membrane; settings: hek293; Not Active = under 50% inhibition at 10 µM
[4] = molecular target: 5-hydroxytryptamine receptor 6 (Homo sapiens, UniProt P50406); format: cell membranes, HeLa, Membrane; settings: hela; note: in other assays of this panel Not Active means under 50% inhibition at 10 µM
Chain of 5-hydroxytryptamine receptor 6 (P50406 whole entry): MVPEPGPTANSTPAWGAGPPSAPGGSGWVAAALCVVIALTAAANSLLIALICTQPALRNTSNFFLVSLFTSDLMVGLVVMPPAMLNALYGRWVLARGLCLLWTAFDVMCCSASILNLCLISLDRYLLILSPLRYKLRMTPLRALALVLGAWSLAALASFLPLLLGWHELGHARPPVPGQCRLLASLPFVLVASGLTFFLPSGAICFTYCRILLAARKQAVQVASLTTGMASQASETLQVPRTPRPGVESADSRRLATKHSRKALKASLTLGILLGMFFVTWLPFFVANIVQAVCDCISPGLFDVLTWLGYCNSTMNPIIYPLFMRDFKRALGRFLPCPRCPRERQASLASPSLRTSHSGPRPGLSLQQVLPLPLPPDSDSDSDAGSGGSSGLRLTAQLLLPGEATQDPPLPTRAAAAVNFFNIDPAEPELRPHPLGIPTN

Melanocortin receptor 5 = Melanocortin receptor 5 (Homo sapiens, UniProt P33032); format: cell membranes, HEK293, Membrane; settings: hek293; note: in other assays of this panel Not Active means under 50% inhibition at 10 µM
Chain of Melanocortin receptor 5 (P33032 whole entry): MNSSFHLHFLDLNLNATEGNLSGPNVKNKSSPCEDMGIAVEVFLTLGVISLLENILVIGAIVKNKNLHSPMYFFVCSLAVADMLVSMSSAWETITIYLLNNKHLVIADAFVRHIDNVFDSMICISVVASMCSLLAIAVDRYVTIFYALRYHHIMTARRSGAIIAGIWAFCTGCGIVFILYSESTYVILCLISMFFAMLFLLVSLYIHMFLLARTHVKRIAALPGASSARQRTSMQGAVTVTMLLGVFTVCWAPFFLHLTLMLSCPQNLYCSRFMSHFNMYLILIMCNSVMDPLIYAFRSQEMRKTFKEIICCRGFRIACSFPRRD

[5] = molecular target: C-C chemokine receptor type 5 (Homo sapiens, UniProt P51681); format: cell membranes, Membrane; settings: hek293; note: in other assays of this panel Not Active means under 50% inhibition at 10 µM
Chain of C-C chemokine receptor type 5 (P51681 whole entry): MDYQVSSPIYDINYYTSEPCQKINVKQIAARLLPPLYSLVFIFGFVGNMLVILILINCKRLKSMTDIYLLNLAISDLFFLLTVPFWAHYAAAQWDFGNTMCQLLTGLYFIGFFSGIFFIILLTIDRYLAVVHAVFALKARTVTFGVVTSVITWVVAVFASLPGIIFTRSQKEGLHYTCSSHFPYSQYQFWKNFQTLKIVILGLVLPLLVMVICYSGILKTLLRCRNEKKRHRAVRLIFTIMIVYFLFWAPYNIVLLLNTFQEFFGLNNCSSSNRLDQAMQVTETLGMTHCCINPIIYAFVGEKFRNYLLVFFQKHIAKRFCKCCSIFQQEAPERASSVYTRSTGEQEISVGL

[6] = molecular target: Protein phosphatase 3 catalytic subunit alpha (Homo sapiens, UniProt Q08209); design: species or system Escherichia coli
[7] = DRUGMATRIX: Phorbol Ester radioligand binding (ligand: [3H] PDBu); format: cell membranes, Mus musculus, ICR, Brain, Membrane; settings: Not Active = under 50% inhibition at 10 µM
[8] = molecular target: T3, C-X-C chemokine receptor type 1 (Homo sapiens, UniProt P25024); note: in other assays of this panel Not Active means under 50% inhibition at 10 µM
T3 sequence (P25024 whole entry): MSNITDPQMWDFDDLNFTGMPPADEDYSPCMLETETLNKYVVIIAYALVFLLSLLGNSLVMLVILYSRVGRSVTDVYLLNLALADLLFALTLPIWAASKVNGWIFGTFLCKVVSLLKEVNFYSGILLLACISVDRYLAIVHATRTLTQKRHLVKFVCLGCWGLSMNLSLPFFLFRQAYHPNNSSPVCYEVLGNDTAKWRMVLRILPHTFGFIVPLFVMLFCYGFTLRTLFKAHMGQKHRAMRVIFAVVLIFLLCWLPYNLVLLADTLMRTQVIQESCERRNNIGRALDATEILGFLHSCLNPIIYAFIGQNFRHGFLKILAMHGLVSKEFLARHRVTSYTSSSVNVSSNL

[9] = molecular target: T4, Polyunsaturated fatty acid lipoxygenase ALOX15 (Oryctolagus cuniculus, UniProt P12530); experiment: biochemical; format: tissue-based, Reticulocytes; settings: reticulocytes
T4 sequence (P12530 whole entry): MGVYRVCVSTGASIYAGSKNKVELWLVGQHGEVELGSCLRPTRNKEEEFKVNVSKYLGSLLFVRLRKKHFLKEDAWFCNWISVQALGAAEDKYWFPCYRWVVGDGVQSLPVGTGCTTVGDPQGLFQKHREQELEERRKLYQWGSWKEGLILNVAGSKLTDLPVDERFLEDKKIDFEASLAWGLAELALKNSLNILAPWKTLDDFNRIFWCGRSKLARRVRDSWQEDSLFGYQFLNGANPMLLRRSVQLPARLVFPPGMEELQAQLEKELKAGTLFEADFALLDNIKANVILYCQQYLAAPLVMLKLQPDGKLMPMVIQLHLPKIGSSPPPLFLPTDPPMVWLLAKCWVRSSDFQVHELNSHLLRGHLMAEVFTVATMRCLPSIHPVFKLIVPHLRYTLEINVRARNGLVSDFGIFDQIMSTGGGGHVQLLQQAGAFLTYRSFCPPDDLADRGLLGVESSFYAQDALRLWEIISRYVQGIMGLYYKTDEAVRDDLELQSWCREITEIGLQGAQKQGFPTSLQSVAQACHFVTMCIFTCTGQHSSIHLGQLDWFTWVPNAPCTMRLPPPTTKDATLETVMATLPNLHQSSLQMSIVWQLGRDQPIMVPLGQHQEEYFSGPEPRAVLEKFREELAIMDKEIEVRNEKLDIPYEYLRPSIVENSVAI

[10] = DRUGMATRIX: Calcium Channel Type L, Phenylalkylamine radioligand binding (ligand: [3H] (-)-Desmethoxyverapamil (D-888)); format: cell membranes, Rattus norvegicus, Wistar, Brain, Membrane; settings: Not Active = under 50% inhibition at 10 µM

Chain of Melanocortin receptor 3 (P41968 whole entry): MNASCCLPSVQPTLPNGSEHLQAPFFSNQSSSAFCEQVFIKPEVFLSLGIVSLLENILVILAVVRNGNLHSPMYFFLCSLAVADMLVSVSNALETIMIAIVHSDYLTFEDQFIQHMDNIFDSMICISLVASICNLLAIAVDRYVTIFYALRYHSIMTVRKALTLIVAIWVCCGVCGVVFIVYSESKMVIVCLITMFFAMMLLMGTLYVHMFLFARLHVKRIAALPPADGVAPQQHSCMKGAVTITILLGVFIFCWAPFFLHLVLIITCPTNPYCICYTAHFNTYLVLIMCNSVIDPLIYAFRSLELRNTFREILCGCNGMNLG

COc1ccc2cc(CC(=O)O)ccc2c1
Not Active: IC50 (Melanocortin receptor 3) | IC50 [1] | IC50 (Estrogen receptor) | IC50 [2] | IC50 (Cytochrome P450 2C9) | Ki (Cytochrome P450 2C9) | IC50 [3] | Ki [3] | IC50 [4] | IC50 (Melanocortin receptor 5) | IC50 [5] | IC50 [6] | IC50 [7] | Ki [7] | IC50 [8] | IC50 [9] | IC50 [10] | Ki [10]

CC=CC(=O)N(CC)c1ccccc1C
Not Active: IC50 (Melanocortin receptor 3) | IC50 [1] | IC50 (Estrogen receptor) | IC50 [2] | IC50 (Cytochrome P450 2C9) | Ki (Cytochrome P450 2C9) | IC50 [3] | Ki [3] | IC50 [4] | IC50 (Melanocortin receptor 5) | IC50 [5] | IC50 [6] | IC50 [7] | Ki [7] | IC50 [8] | IC50 [9] | IC50 [10] | Ki [10]

C=C1C(=O)O[C@@H]2C3O[C@]3(C)CC/C=C(\C)CC[C@@H]12 (stereo not given in full)
Not Active: IC50 (Melanocortin receptor 3) | IC50 [1] | IC50 (Estrogen receptor) | IC50 [2] | IC50 (Cytochrome P450 2C9) | Ki (Cytochrome P450 2C9) | IC50 [3] | Ki [3] | IC50 [4] | IC50 (Melanocortin receptor 5) | IC50 [5] | IC50 [6] | IC50 [7] | Ki [7] | IC50 [8] | IC50 [9] | IC50 [10] | Ki [10]

CC(/C=C1\SC(=S)N(CC(=O)O)C1=O)=C\c1ccccc1
Not Active: IC50 (Melanocortin receptor 3) | IC50 [1] | IC50 (Estrogen receptor) | IC50 [2] | IC50 (Cytochrome P450 2C9) | Ki (Cytochrome P450 2C9) | IC50 [3] | Ki [3] | IC50 [4] | IC50 (Melanocortin receptor 5) | IC50 [5] | IC50 [6] | IC50 [7] | Ki [7] | IC50 [8] | IC50 [9] | IC50 [10] | Ki [10]

O=C1OCCN1/N=C/c1ccc([N+](=O)[O-])o1 [FURAZOLIDONE]
Not Active: IC50 (Melanocortin receptor 3) | IC50 [1] | IC50 (Estrogen receptor) | IC50 [2] | IC50 [3] | Ki [3] | IC50 [4] | IC50 (Melanocortin receptor 5) | IC50 [5] | IC50 [6] | IC50 [7] | Ki [7] | IC50 [8] | IC50 [9] | IC50 [10] | Ki [10]

NCC(=O)O [GLYCINE]
Not Active: IC50 (Melanocortin receptor 3) | IC50 [1] | IC50 (Estrogen receptor) | IC50 [2] | IC50 [3] | Ki [3] | IC50 [4] | IC50 (Melanocortin receptor 5) | IC50 [5] | IC50 [6] | IC50 [7] | Ki [7] | IC50 [8] | IC50 [9] | IC50 [10] | Ki [10]

CN1CCC[C@H]1c1cccnc1 [NICOTINE]
Not Active: IC50 (Melanocortin receptor 3) | IC50 [1] | IC50 (Estrogen receptor) | IC50 [2] | IC50 [3] | Ki [3] | IC50 [4] | IC50 (Melanocortin receptor 5) | IC50 [5] | IC50 [6] | IC50 [7] | Ki [7] | IC50 [8] | IC50 [9] | IC50 [10] | Ki [10]
